Data taken from US9772334B2, “Inflammatory bowel disease markers and therapies for colitis-associated intestinal fibrosis” (THE REGENTS OF THE UNIVERSITY OF CALIFORNIA, priority 2012, dated 2017).

Key:
[1] = system: TNBS mediated chronic colitis; test: TNBS mediated chronic colitis in mice, intracolonic mCRAMP; type: in vivo; conditions: for colonic collagen deposition / TNBS induced colonic TNFα protein expression / colonic colla2 mRNA: intracolonic
Description: FIG. 1A is an illustration of the experimental plan of TNBS mediated chronic colitis. Wild-type and […] mice were injected with TNBS solution (0.5-1 mg per 20 g mice) in 30% ethanol or 30% ethanol only (vehicle control) under transient isoflurane anesthesia. […] All ethanol treated groups had approximately 20% body weight gain. […] Results are representative of n=6 mice per group.
Collagen was stained in blue. Collagen deposited in mucosal and submucosal layer of TNBS treated wild-type mice was reduced by CRAMP treatment. […] Intracolonic treatment of mCRAMP reduced colonic colla2 mRNA and collagen deposition in both WT (p=0.0364) and Camp^−/− (p=0.04) mice. Results are representative of n=6 mice per group.
Fibroblasts accumulated in the mucosal and submucosal locations as collagen deposition. […] Three different locations (3 separate images) per sample were counted. […] Cell migration was not affected by LL-37 (0-10 μM). Results are representative of 3 independent experiments.

[2] = system: DSS mediated colitis; conditions: intracolonic exogenous peptide; Tai et al. 2007; cited from earlier work
[3] = system: TNFα expression in Raw264.7 macrophages; test: PAMP induced TNFα expression in Raw264.7 macrophages; type: cell-based, mouse; conditions: flagellin 50 ng/ml
[4] = system: TNBS acute colitis; test: TNBS treated acute colitis in mice, intracolonic mCRAMP; type: in vivo; conditions: for colonic 16S expression: intracolonic
Description: FIG. 20A is an illustration of TNBS experimental plan. […] Experiments included n=6 mice per group.
FIGS. 21B and 21C show colonic Camp mRNA expression of mice. […] There was no significant difference in 16S expression among wild-type and Camp−/− mice. n=6 mice per group.

[5] = system: TNFα expression in Raw264.7 macrophages; test: PAMP induced TNFα expression in Raw264.7 macrophages; type: cell-based, mouse
Description: To identify the anti-inflammatory mechanism of cathelicidin, human PBMCs and mouse macrophages to were exposed to PAMP signals (LPS and E. coli DNA) in the presence of cathelicidin LL-37 or mCRAMP (1-10 μM).

[6] = system: Akt and ERK phosphorylation in Raw 264.7 macrophages; test: LPS induced Akt and ERK phosphorylation in Raw 264.7 macrophages; type: cell-based, mouse; conditions: mCRAMP 10 μM; 30 minutes
Description: […]. LPS induced TNFα expression is Akt dependent. […] All experiments are representative of 3 independent experiments.

Substance: mCRAMP
- colonic collagen deposition ([1]; Camp−/− mice): reduced
- TNBS induced colonic TNFα protein expression ([1]; Camp−/− mice, p=0.0054): significantly reduced TNBS induced TNFα protein expression
- colonic colla2 mRNA ([1]; Camp−/− mice, p=0.04): reduced
- histology score (H&E) ([1]; Camp−/− mice, p=0.04): significantly reduced histology score
- percent of body weight change (week 0 to week 7) ([1]; TNBS treated Camp−/− mice): significant body weight loss regardless of mCRAMP treatment
- collagen deposited in mucosal and submucosal layer (Masson Trichrome staining) ([1]; TNBS treated wild-type mice): reduced
- percent of body weight change (week 0 to week 7) ([1]; TNBS treated wild-type mice, p=0.01): restored the body weight gain
- colonic vimentin mRNA expression ([1]; WT and Camp−/− mice): did not affect
- colonic α-SMA mRNA expression ([1]; WT and Camp−/− mice): did not affect
- colonic collagen deposition ([1]; WT mice): reduced
- TNBS induced colonic TNFα protein expression ([1]; WT mice, p=0.0127): significantly reduced TNBS induced TNFα protein expression
- colonic colla2 mRNA ([1]; WT mice, p=0.0364): reduced
- fibroblast accumulation (number of fibroblasts per field, vimentin immunohistochemistry) ([1]; chronic TNBS colitis): not affected
- TNBS induced intestinal fibrosis ([1]; mCRAMP 5 mg/kg intracolonically): significantly reduces TNBS induced intestinal fibrosis
- histology score (H&E) ([1]; wild-type mice, p=0.03): significantly reduced histology score
- DSS mediated colitis [2]: ameliorates DSS mediated colitis
- flagellin induced TNFα expression [3]: no inhibitory effect
- colonic TNFα levels ([4]; Camp−/− mice): significantly reduced colonic TNFα levels
- colonic 16S expression ([4]; Camp−/− mice): significantly reduced colonic 16S expression
- histological damage (histological score) ([4]; Camp−/− mice, p=0.0484): significantly reduced histological damage
- colonic TNFα levels ([4]; wild-type mice): significantly reduced colonic TNFα levels
- colonic 16S expression ([4]; wild-type mice): significantly reduced colonic 16S expression
- histological damage (histological score) ([4]; wild-type mice, p=0.0006): significantly reduced histological damage
- LPS induced TNF mRNA expression ([5]; mCRAMP 10 μM, 6 and 16 hours): did not alter
- LPS induced TNFα protein expression in conditioned media ([5]; mCRAMP 10 μM, LPS 0.1 μg/ml, 16 hours): significantly reduced
- E. coli DNA induced TNFα expression ([5]; mCRAMP 1-10 μM, E. coli DNA 0.5 μg/ml, 16 hours): no inhibitory effect
- LPS induced Akt phosphorylation [6]: significantly suppressed
- LPS induced ERK phosphorylation [6]: significantly suppressed
